Test results: patent publication US20060247187A1, “Attenuation of disorders by aminoglycosides” (priority 2005, published 2006)

Experiments:
Male Sprague-Dawley rats [1] = experiment: Morphological examination of the kidney (PAS, propidium iodide apoptosis, GPX-3 in situ hybridization); format: in vivo, rat
Method: Paraffin embedded sections were stained with periodic acid-Schiff (PAS) and examined by light microscopy to determine the extent of gentamicin toxicity (Kopple et al., 2002). In addition, tubular apoptosis was assessed by staining for DNA fragmentation using propidium iodide. Briefly, sections (3 μm) from the same paraffin blocks used for PAS staining were de-paraffinised with xylene and rehydrated, soaked with PBS pH 7.4 and incubated for 10 minutes with propidium iodide 10 μg/ml and RNAse A 100 μg/ml at 37° C. Sections were subsequently washed extensively with PBS, rinsed with distilled water and mounted with an aqueous media (AFT, Behring Diagnostics, Somerville, N.J.). On a fluorescence microscope, renal tissue was identified on bright field and then, using a rhodamine filter set, the normal and apoptotic tubular nuclei were counted. Twenty cortical windows were assessed in each animal. The results were expressed as a mean number of fragmented and condensed nuclei (apoptotic cells) per window. As a marker of proximal tubular injury, renal gene expression of extracellular glutathione peroxidase, GPX-3 (Yazar et al., 2003) was also assessed in paraffin fixed sections by in situ hybridization

Male Sprague-Dawley rats [2] = experiment: Gentamicin nephrotoxicity model: serum and urine biochemistry, renal function, kidney weight after 8 days of treatment
Method: Group 1 (Gentamicin): These animals received timed daily subcutaneous injections of gentamicin (50 mg/kg/d) in divided doses, delivered during the resting period, for 8 consecutive days.
Group 3 (Sham): These animals received twice daily subcutaneous injections of equivalent amount of vehicle (0.9% NaCl) according to the same timed protocol for 8 consecutive days.
Kidneys were harvested and blood collections were performed. […] One kidney was immediately removed for histological examination.
(Roche Diagnostics, Basel, Switzerland). […] Gentamicin standards were prepared in normal rat sera.
Serum and urine creatinine were measured by HPLC.

Male Sprague-Dawley rats [3] = settings: serum, after treatment
Method: Consequently, serum ACE activity was estimated in animals before and after administration of gentamicin using the synthetic ACE-specific substrate, hippuryl-histidyl-leucine (Shihabi and Scaro, 1981). The released product (His-Leu) was fluorimetrically measured after reaction with ophthaldehyde in time-fixed assays. Briefly, 20 μl of 10 times diluted plasma was mixed with 20 μl Hip-His-Leu (final conc.=1 mM) made up to 50 μl with 10 μL of 100 mM Tris-HCl, 300 mM NaCl, pH 8.3. The samples were then mixed and incubated in 37° C. water bath for 30 minutes. To detect the generated His-Leu, 120 μl of 0.3 N NaOH and 10 μl o-phthaldehyde were then added and the samples briefly vortexed and incubated at room temperature for 10 minutes. To terminate the derivitisation reaction, 20 μl of 3N HCl was added and the samples centrifuged for 5 minutes at 15, 000 rpm to remove insoluble residue. The resulting supernatant was transferred to a black 96 well plate and fluorescence read at excitation=355 nm, emission=485 nm in a fmax fluorescence detector (Molecular Biosystems, USA). Results were corrected for blank fluorescence detected in the absence of Hip-His-Leu. Results are expressed as nmol of His-Leu generated per minute of reaction time per ml of plasma (nmol/min/ml).

[4] = tested on: Escherichia coli (ATCC 25922); experiment: Bactericidal studies: MIC of gentamicin in presence and absence of aminoguanidine; format: cell-based
Method: A standardised E coli (ATCC 25922) was then inoculated into the broth and the lowest concentration of gentamicin to inhibit the growth of the bacterium determined (MIC). Results are expressed in milligrams of gentamicin per litre. Studies were performed in duplicate on two separate occasions by a blinded operator. A clinically significant change was defined as an increase in the MIC by two or more doubling dilutions.

Male Sprague-Dawley rats [5] = experiment: Oxidation, lipoxidation and glycation products (AOPP, MDA-linked fluorescence, AGE fluorescence, LMW-AGEs, CML staining)
Method: Serum and tissue advanced oxidation products (AOPP) were measured by spectrophotometric methods (Martin-Gallan et al., 2003). This assay largely detects the presence of protein dityrosine modifications (Witko-Sarsat et al., 2003). Briefly, 200 μl of homogenised renal tissue or serum was diluted 1:3 in PBS, 100 μL of 1.16 mol/L potassium iodide (KI, Sigma) were then added to each tube, followed two minutes later by 200 μL of concentrated acetic acid. […] Concentrations of AOPP were expressed as arbitrary units calibrated to a chloramine T standard.
Tissue-linked glycoxidation products were measured, based on tissue fluorescence using a flow injection assay (Wrobel et al., 1998). Briefly, renal tissue was enymatically hydrolysed using proteinase K. The solution was then centrifuged to remove sediment and the aqueous phase injected directly into a water column flowing through a fluorescence detector (Waters 470, Waters USA) and UV detector (Hewlett-Packard, USA) in series. Pentosidine-linked fluorescence was measured at excitation 325 nm with an emission at 385 nm (Meng et al., 2000). The level of lipid peroxidation was estimated by determining the malondialdehyde (MDA)-linked fluorescence (390 nm/emission 460 nm) (Meng et al., 1998). The values of fluorescence were corrected against those of the blanks containing the same concentration of proteinase K and adjusted for the peptide content using the absorbance at 280 nm. The data were expressed in arbitrary units, with […] being given the reference value of 1. Finally, paraffin sections were stained for CML-AGEs

[6] = prospective studies, gentamicin for over 7 days; cited from earlier work
Male Sprague-Dawley rats [7] = experiment: Urinary nitrate/nitrite (NOx) excretion by Griess reaction; format: in vivo, rat; settings: per mg creatinine, after treatment
Method: As a marker of renal NO generation, daily excretion of urinary nitrate/nitrite (NOx) was measured using the Griess reaction (Komers et al., 1994; Miranda et al., 2001). Briefly, 0.5 ml of urine was centrifuged at 10,000 g for 15 minutes, the supernatant removed and diluted fivefold using deionised water. From each sample 50 μl was dispensed into a 96-well plate followed by 50 μl of freshly prepared vanadium chloride solution (0.8 mg/ml in 1M HCl) and immediately followed by 50 μl of Griess reagent (2% sulphanilamide in 1.47M hydrochloric acid) and 0.1% N-(1-aphthyl)ethylenediamine dihydrochloride in deionised water. […] Each sample was assayed in triplicate. Urinary NOx excretion was expressed as μmol/mg creatinine.

[8] = Serum and renal cortical gentamicin levels; format: in vivo, rat
Method: (Roche Diagnostics, Basel, Switzerland). […] Gentamicin standards were prepared in normal rat sera. […] To measure the gentamicin concentrations in the renal cortex, the kidney was processed and analysed. The upper pole of the vertically divided right kidney was removed and snap-frozen at minus 80° C. until use. […] After centrifugation, a 100 μl aliquot of the supernatant was used immediately for gentamicin determination by HPLC. […] Fluorescence detection was set at excitation 340 nm, emission 418 nm. The […] gentamicin peak was used to quantify the total gentamicin content. Calibration curves of the components were prepared in a drugfree supernatant of the renal homogenates and were linear over the concentration range 50-500 μg/ml. […] Renal cortical gentamicin concentrations were expressed per milligram of renal cortical protein.

[9] = cited from earlier work
Male Sprague-Dawley rats [10] = experiment: Serum and urine parameters after aminoguanidine pre-treatment but before gentamicin therapy; settings: p<0.05
Method: Male Sprague-Dawley rats were randomly assigned to one of three groups:
Group 2 (Gentamicin+aminoguanidine): rats received aminoguanidine 4 g/L in their drinking water for 2 weeks, prior to gentamicin dosing as described above.
Prior to gentamicin dosing and on day 7 of the study, animals were placed individually in metabolic cages and 24 h urine collected and food intake recorded. Blood was collected into heparinised tubes, after being obtained from the tail of each rat, at baseline and on days 2 and 5. The blood samples were always obtained before the daily injections were given, as well as being taken 24 hours following the last injection and at the time of sacrifice. […]
Standard physiological and biochemical parameters including body weight and food and water intake, were measured before and after gentamicin dosing regimens. […] Serum gentamicin was measured in serum by a polarisation fluorescence immunoassay in a TDx analyser (Abbott Diagnostics, Abbott Park, Ill., USA). […] To quantify enzymuria, urinary excretion of alanine transaminase (ALT), aspartate transferase (AST), alkaline phosphatase (AP) and lactate dehydrogenase (LDH) were measured using a Hitachi 747 Automatic Analyser, as above. […] Therefore the urinary excretion of the electrolytes were measured in this experimental protocol and expressed as the fractional excretion (FE), which is calculated as: FEx(%)=(Ux×PCr)/(Px×UCr) […]

[11] = following 8-days of treatment, Mean ± SEM
[12] = serum, following 8-days of treatment, Mean ± SEM

**Q.** With `CNC(C)C1CCC(N)C(OC2C(N)CC(N)C(OC3OCC(C)(O)C(NC)C3O)C2O)O1` (stereo not drawn) [Gentamicin, gentamicin] as the compound, how does the “Tubular necrosis (PAS histology of renal cortex)” value (Male Sprague-Dawley rats [1]; FIG. 3, after 8 days of treatment) read?
**A.** extensive and marked tubular necrosis

**Q.** What about the “Tubular expression of glutathione peroxidase-3” value (Male Sprague-Dawley rats [1]; FIG. 4, in situ hybridization, aminoguanidine group also received gentamicin) of the same compound?
**A.** significantly reduced

**Q.** What about the “Fragmented and condensed nuclei (apoptotic cells) per field” value (Male Sprague-Dawley rats [1]; tubular nuclei, propidium iodide, aminoguanidine group also received gentamicin) of the same compound?
**A.** 12±2 per field

**Q.** And the Normalised kidney weight (Male Sprague-Dawley rats [2]; FIG. 2, aminoguanidine group also received gentamicin)?
**A.** significantly higher

**Q.** And the “Renal blood flow as estimated by the clearance of endogenous hippurate” value (Male Sprague-Dawley rats [2]; after 8 days gentamicin, aminoguanidine group also received gentamicin)?
**A.** 8.1 ± 1.1 mL/min

**Q.** And the “Urine Volume” value (Male Sprague-Dawley rats [2]; following 8-days of treatment, gentamicin 50 mg/kg/d s.c., Mean ± SEM)?
**A.** 29 ± 6 mL/day

**Q.** What about the FeCa (Male Sprague-Dawley rats [2]; [11]) of the same compound?
**A.** 6 ± 3%

**Q.** What about the FeK (Male Sprague-Dawley rats [2]; [11]) of the same compound?
**A.** 70 ± 20 %

**Q.** What about the FeMg (Male Sprague-Dawley rats [2]; [11]) of the same compound?
**A.** 21 ± 5 %

**Q.** And the “Urine ALT” value (Male Sprague-Dawley rats [2]; [11])?
**A.** 10.5 ± 4.6 U/ml

**Q.** And the “Urine AP” value (Male Sprague-Dawley rats [2]; [11])?
**A.** 119 ± 29 U/ml

**Q.** What about the “Urine AST” value (Male Sprague-Dawley rats [2]; [11]) of the same compound?
**A.** 147 ± 62 U/ml

**Q.** And the “Urine LDH” value (Male Sprague-Dawley rats [2]; [11])?
**A.** 489 ± 100 U/ml

**Q.** And the Creatinine clearance (Male Sprague-Dawley rats [2]; following 8-days of treatment, Mean ± SEM, none in table head)?
**A.** 1.3 ± 0.3 mL/min

**Q.** And the “Fall in creatinine clearance compared to untreated animals” value (Male Sprague-Dawley rats [2]; gentamicin alone, 8 days)?
**A.** greater than 50%

**Q.** What about the “Serum LDH” value (Male Sprague-Dawley rats [2]; marker of renal injury, after treatment) of the same compound?
**A.** 380 ± 76 IU/ml

**Q.** And the Creatinine (Male Sprague-Dawley rats [2]; [12])?
**A.** 122 ± 55 µM

**Q.** What about the Urea (Male Sprague-Dawley rats [2]; [12]) of the same compound?
**A.** 20.1 ± 5.6 mM

**Q.** And the ACE activity (Male Sprague-Dawley rats [3])?
**A.** 5.1 ± 0.4 nmol/mL/min

**Q.** And the MIC for gentamicin ([4]; in the absence of aminoguanidine)?
**A.** 0.2 µg/mL

**Q.** And the MIC for gentamicin ([4]; in the presence of aminoguanidine at 10 μg/ml)?
**A.** 0.3 µg/mL

**Q.** And the MIC for gentamicin ([4]; in the presence of aminoguanidine at 100 μg/ml)?
**A.** 0.2 µg/mL

**Q.** And the MIC for gentamicin ([4]; in the presence of aminoguanidine at 1 mg/ml)?
**A.** 0.5 µg/mL

**Q.** What about the “Staining for CML-AGE in kidney” value (Male Sprague-Dawley rats [5]; FIG. 7, aminoguanidine group also received gentamicin) of the same compound?
**A.** substantially increased

**Q.** And the “Serum AOPPs” value (Male Sprague-Dawley rats [5]; FIG. 8)?
**A.** elevated to approximately the same extent

**Q.** And the “Serum MDA-linked fluorescence” value (Male Sprague-Dawley rats [5]; FIG. 8, compared to sham animals or those receiving aminoguanidine)?
**A.** elevated

**Q.** What about the “Circulating levels of LMW-AGEs” value (Male Sprague-Dawley rats [5]; after 8 days, aminoguanidine group also received gentamicin) of the same compound?
**A.** elevated to over twice the level seen in untreated animals

**Q.** And the “Cortical AGE-fluorescence” value (Male Sprague-Dawley rats [5]; arbitrary units, untreated 1.0±0.3, p=NS)?
**A.** 1.2±0.3

**Q.** And the “Patients showing signs of nephrotoxicity” value [6]?
**A.** up to 50%

**Q.** What about the “Urine NOx” value (Male Sprague-Dawley rats [7]) of the same compound?
**A.** 4.1 ± 0.4 µmol/mg

**Q.** For `N=C(N)NN` [aminoguanidine], which “Fragmented and condensed nuclei (apoptotic cells) per field” value (Male Sprague-Dawley rats [1]; rat, in vivo) is on record?
**A.** 1-2 per field

**Q.** What about the “Tubular expression of glutathione peroxidase-3” value (Male Sprague-Dawley rats [1]; rat, in vivo) of the same compound?
**A.** not significantly changed

**Q.** What about the Normalised kidney weight (Male Sprague-Dawley rats [2]; rat, in vivo) of the same compound?
**A.** reduced the renal weight

**Q.** And the “Renal blood flow as estimated by the clearance of endogenous hippurate” value (Male Sprague-Dawley rats [2]; rat, in vivo)?
**A.** 12.1 ± 1.1 mL/min

**Q.** And the “Reduction of gentamicin content of the renal cortex” value ([8]; FIG. 5, after 8 days, aminoguanidine co-administered with gentamicin, vs gentamicin alone, p<0.001)?
**A.** approximately two thirds

**Q.** What about the “Serum gentamicin levels at day 2 and day 5” value ([8]; effect of co-administration of aminoguanidine) of the same compound?
**A.** unaffected

**Q.** And the “Staining for CML-AGE in kidney” value (Male Sprague-Dawley rats [5]; rat, in vivo)?
**A.** able to reduce staining for CML-AGE

**Q.** And the Half life [9]?
**A.** 4 h

**Q.** What about the Urinary potassium excretion (Male Sprague-Dawley rats [10]) of the same compound?
**A.** reduced
